pEC50, pIC50: −log10 of the molar value.

Consider eight compounds from patent US20250236627A1, “CERTAIN OCTAHYDROFURO[3,4- B]PYRAZINES AS GLP-1 RECEPTOR MODULATORS” (ASTRAZENECA AB, priority 2021, published 2025).

The target of one assay is T1, human GLP-1R receptor (Homo sapiens, UniProt P43220, L260F).
T1 construct: expressed in transfected cells; host or cells: CHO-K1 (ATCC CCL-61)
As to the kind of experiment: CHOK1 GLP-1R cAMP Assay. Format: cell-based. The note with it: CHO-K1 cell line stably expressing human GLP-1R; HTRF cAMP detection. An outline of the steps: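 CHO-K1 cells, 800/well, stimulated 20 min at room temperature with compound in HEPES pH 7.4/HBSS/0.1% BSA plus IBMX (1 mM in the added buffer). cAMP measured by HTRF competitive immunoassay after ≥1 h, converted to pM via standard curve. EC50 from 4-parameter logistic fit; % effect relative to saturating GLP1(7-36)NH2.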

In assay [1] the target is T2, endogenous human glucagon-like peptide 1 receptor (GLP-1R) (Homo sapiens, UniProt P43220).
T2 construct: endogenous human glucagon-like peptide 1 receptor (GLP-1R) in a pancreatic insulinoma cell line; host or cells: EndoC-βH1 human pancreatic β cell line
T2 sequence (P43220 24-463): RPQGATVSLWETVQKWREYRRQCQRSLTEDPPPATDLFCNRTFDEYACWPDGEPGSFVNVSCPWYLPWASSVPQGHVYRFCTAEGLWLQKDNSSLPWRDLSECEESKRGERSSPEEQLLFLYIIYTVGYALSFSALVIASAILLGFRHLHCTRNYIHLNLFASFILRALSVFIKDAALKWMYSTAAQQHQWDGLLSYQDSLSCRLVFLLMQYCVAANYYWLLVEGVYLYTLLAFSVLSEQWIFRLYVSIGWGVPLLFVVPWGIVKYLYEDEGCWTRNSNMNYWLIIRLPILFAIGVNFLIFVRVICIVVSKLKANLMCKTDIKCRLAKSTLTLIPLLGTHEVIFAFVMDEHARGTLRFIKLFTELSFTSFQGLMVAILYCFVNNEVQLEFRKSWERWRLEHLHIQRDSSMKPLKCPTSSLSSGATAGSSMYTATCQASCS
As to the kind of experiment: EndoC cAMP Accumulation Assay. In kind it is cell-based. The note with it: EndoC-βH1 human pancreatic β cell line; HTRF cAMP assay. Summed up: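 Thawed EndoC-βH1 cells (3000 per well) were stimulated for 30 min at room temperature in HBSS/25 mM HEPES pH 7.4, 0.1% BSA and 0.5 mM IBMX. cAMP was measured by HTRF competitive immunoassay after 1 h. Responses were fitted by 4-parameter logistic as % activation relative to maximal GIP (82.5 nM), with basal cAMP as zero.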

Assay [2] addresses T3, human phosphodiesterase-3A (Homo sapiens, UniProt Q14432).
T3 construct: host or cells: Sf9 cells
Description: PDE3 Assay. In kind it is biochemical. The note with it: human recombinant enzyme expressed in Sf9 cells; formation of 5′AMP from cAMP. The protocol: Evaluation of the effects of compounds on the activity of the human phosphodiesterase-3A is quantified by measuring the formation of 5′AMP from cAMP using a human recombinant enzyme expressed in Sf9 cells.
The test compound, reference compound or water (control) are added to a buffer containing 40 mM Tris/HCl (pH 7.4) and 8 mM MgCl2, 450 nM cAMP and 0.25 μCi [^3H]cAMP.
Thereafter, the reaction is initiated by addition of the enzyme (about 1 U) and the mixture is incubated for 20 min at 22° C.
For basal control measurements, the enzyme is omitted from the reaction mixture.
Following incubation SPA beads are added. After 30 min at 22° C. under shaking, the amount of [^3H]5′AMP is quantified with a scintillation counter (Topcount, Packard).
The results are expressed as a percent inhibition of the control enzyme activity. The standard inhibitory reference compound is milrinone (CAS number 78415-72-2), which is tested in each experiment at several concentrations to obtain an inhibition curve from which its IC50 value is calculated.

T3 sequence (Q14432 whole entry): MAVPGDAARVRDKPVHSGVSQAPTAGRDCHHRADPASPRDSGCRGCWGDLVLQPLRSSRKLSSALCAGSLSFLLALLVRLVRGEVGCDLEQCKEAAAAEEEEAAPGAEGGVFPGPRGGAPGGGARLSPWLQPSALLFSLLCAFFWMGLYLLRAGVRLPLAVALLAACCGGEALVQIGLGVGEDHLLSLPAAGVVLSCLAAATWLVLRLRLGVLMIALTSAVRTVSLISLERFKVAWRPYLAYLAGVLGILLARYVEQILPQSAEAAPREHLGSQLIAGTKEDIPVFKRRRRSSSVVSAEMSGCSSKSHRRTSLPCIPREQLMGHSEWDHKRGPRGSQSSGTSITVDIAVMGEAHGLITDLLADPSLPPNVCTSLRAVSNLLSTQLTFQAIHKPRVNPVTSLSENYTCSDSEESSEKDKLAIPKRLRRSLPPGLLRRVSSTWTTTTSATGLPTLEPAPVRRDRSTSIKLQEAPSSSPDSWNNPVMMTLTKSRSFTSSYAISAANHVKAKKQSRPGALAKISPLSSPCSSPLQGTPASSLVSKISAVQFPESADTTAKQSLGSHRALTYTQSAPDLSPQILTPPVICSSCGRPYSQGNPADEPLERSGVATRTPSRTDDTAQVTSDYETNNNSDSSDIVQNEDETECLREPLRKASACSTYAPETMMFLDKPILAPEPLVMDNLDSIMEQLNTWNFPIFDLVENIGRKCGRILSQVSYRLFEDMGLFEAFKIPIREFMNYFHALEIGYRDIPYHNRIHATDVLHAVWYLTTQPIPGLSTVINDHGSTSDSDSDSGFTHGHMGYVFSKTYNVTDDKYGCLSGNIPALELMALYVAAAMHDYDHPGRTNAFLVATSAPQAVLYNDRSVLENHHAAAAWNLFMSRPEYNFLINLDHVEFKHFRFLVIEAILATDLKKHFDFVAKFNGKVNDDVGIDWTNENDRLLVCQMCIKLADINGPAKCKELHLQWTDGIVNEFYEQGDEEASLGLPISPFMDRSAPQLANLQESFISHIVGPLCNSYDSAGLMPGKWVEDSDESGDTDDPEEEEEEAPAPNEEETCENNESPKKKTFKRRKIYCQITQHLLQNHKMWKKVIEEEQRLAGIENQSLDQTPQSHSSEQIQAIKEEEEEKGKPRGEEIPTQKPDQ
T1 sequence (P43220 24-463 L260F): as the sequence (P43220 24-463) above, with L237F counted along it

Turning to `COc1cc(C(=O)O)cc2c1nc(CN1CCN(c3cccc4c3O[C@@](C)(c3ccc(Cl)cn3)O4)[C@@H]3COC[C@@H]31)n2C[C@@H]1CCCO1` (relative stereo) [Example 2a, 2-((4aR*,7aS*)-4-((R*)-2-(5-Chloropyridin-2-yl)-2-methylbenzo[d][1,3]dioxol-4-yl)hexahydrofuro[3,4-b]pyrazin-1(2H)-yl)methyl)-4-methoxy-1-(((S)-tetrahydrofuran-2-yl)methyl)-1H-benzo[d]imidazole-6-carboxylic acid], the negative logarithm of the EC50 (pEC50) on human GLP-1R receptor is 8.42; in assay [1] it was 8.51. The pIC50 in assay [2] was < 4.00.
On the same counts, the results for `COc1cc(C(=O)O)cc2c1nc(CN1CCN(c3cccc4c3O[C@@](C)(c3ccc(Cl)cn3)O4)[C@@H]3COC[C@@H]31)n2C[C@@H]1CCO1` (relative stereo) [Example 1b, 2-((4aR*,7aS*)-4-((R*)-2-(5-Chloropyridin-2-yl)-2-methylbenzo[d][1,3]dioxol-4-yl)hexahydrofuro[3,4-b]pyrazin-1(2H)-yl)methyl)-4-methoxy-1-(((S)-oxetan-2-yl)methyl)-1H-benzo[d]imidazole-6-carboxylic acid] are 8.74, 8.51 and < 4.00.
The corresponding values for `C[C@]1(c2ccc(Cl)cn2)Oc2cccc(N3CCN(Cc4nc5c(F)cc(C(=O)O)cc5n4CC4(C#N)CC4)[C@H]4COC[C@H]43)c2O1` (single isomer, unassigned) [Example 22a] are 8.57, 8.49 and < 4.00.
The corresponding values for `C[C@]1(c2ccc(Cl)cn2)Oc2cccc(N3CCN(Cc4nc5c(F)cc(C(=O)O)cc5n4C[C@@H]4CCO4)[C@H]4COC[C@H]43)c2O1` (single isomer, unassigned) [Example 9d, 2-(((4aR*,7aS*)-4-((R*)-2-(5-Chloropyridin-2-yl)-2-methylbenzo[d][1,3]dioxol-4-yl)hexahydrofuro[3,4-b]pyrazin-1(2H)-yl)methyl)-4-fluoro-1-(((S)-oxetan-2-yl)methyl)-1H-benzo[d]imidazole-6-carboxylic acid] are 6.49, 5.68 and < 4.00.
In the case of `C[C@]1(c2ccc(Cl)cc2F)Oc2cccc(N3CCN(Cc4nc5ccc(C(=O)O)cc5n4C[C@@H]4CCO4)[C@H]4COC[C@H]43)c2O1` (single isomer, unassigned) [Example 6a, 2-(((4aR*,7aS*)-4-((R*)-2-(4-Chloro-2-fluorophenyl)-2-methylbenzo[d][1,3]dioxol-4-yl)hexahydrofuro[3,4-b]pyrazin-1(2H)-yl)methyl)-1-(((S)-oxetan-2-yl)methyl)-1H-benzo[d]imidazole-6-carboxylic acid], the negative-log EC50 (pEC50) on human GLP-1R receptor is 8.82; in assay [1] it was 9.04. For the same compound, in assay [2], the negative logarithm of the IC50 (pIC50) was < 4.00.
For the compound `C[C@]1(c2ccc(Cl)cn2)Oc2cccc(N3CCN(Cc4nc5ccc(C(=O)O)cc5n4C[C@@H]4CCCO4)[C@H]4COC[C@H]43)c2O1` (single isomer, unassigned) [Example 8a, 2-(((4aR*,7aS*)-4-((R*)-2-(5-Chloropyridin-2-yl)-2-methylbenzo[d][1,3]dioxol-4-yl)hexahydrofuro[3,4-b]pyrazin-1(2H)-yl)methyl)-1-(((S)-tetrahydrofuran-2-yl)methyl)-1H-benzo[d]imidazole-6-carboxylic acid], the pEC50 is 7.82 at human GLP-1R receptor and 7.77 in assay [1]. In addition, the pIC50 in assay [2] is < 4.00.
Turning to `C[C@]1(c2ccc(Cl)cn2)Oc2cccc(N3CCN(Cc4nc5c(Cl)cc(C(=O)O)cc5n4CC4(C#N)CC4)[C@H]4COC[C@H]43)c2O1` (single isomer, unassigned) [Example 23a], the negative logarithm of the EC50 (pEC50) was 8.74 at human GLP-1R receptor and 8.30 in assay [1]. The pIC50 in assay [2] was < 4.00.
The corresponding values for `C[C@]1(c2ccc(Cl)cn2)Oc2cccc(N3CCN(Cc4nc5ccc(C(=O)O)cc5n4CC4(CC#N)CC4)[C@H]4COC[C@H]43)c2O1` (single isomer, unassigned) [Example 25] are 8.29, 8.10 and < 4.00.
